pIC50: −log10 of the molar value.

The assay is described as follows: Compound was evaluated for inhibition of PNP-catalyzed inosine […] in Cellulomonas sp.
Broadly, the pIC50 is the IC50 on a negative log10 scale, so that one unit is a factor of ten. A high value points to a small IC50. Consider `Nc1nc2c(ncn2CCCCC(F)(F)P(=O)(O)O)c(=O)[nH]1` [9-(5',5'-difluoro-5'-phosphonopentyl)guanine], for which the pIC50 is 6.27.
With `O=c1[nH]cnc2c1ncn2CC[C@@H]1C[C@H]1C(F)(F)P(=O)(O)O` [(Difluoro-{(1R,2S)-2-[2-(6-oxo-1,6-dihydro-purin-9-yl)-ethyl]-cyclopropyl}-methyl)-phosphonic acid] the figure was 7.15; with `Nc1nc2c(ncn2CC[C@@H]2C[C@H]2C(F)(F)P(=O)(O)O)c(=O)[nH]1` [({(1R,2S)-2-[2-(2-Amino-6-oxo-1,6-dihydro-purin-9-yl)-ethyl]-cyclopropyl}-difluoro-methyl)-phosphonic acid], 6.41.
With `O=c1[nH]cnc2c1ncn2C[C@@H]1COC[C@@H]1CC(F)(F)P(=O)(O)O` [{1,1-Difluoro-2-[(3R,4R)-4-(6-oxo-1,6-dihydro-purin-9-ylmethyl)-tetrahydro-furan-3-yl]-ethyl}-phosphonic acid] the figure was 7.46; with `O=c1[nH]cnc2c1ncn2C[C@H]1COC[C@@H]1CC(F)(F)P(=O)(O)O` [{1,1-Difluoro-2-[(3R,4S)-4-(6-oxo-1,6-dihydro-purin-9-ylmethyl)-tetrahydro-furan-3-yl]-ethyl}-phosphonic acid], 7.43.

The record behind these values is BindingDB's records for doi:10.1016/s0960-894x(99)00495-3 (Tokyo University of Pharmacy & Life Science, 1999).
